Test results published in article doi:10.1101/2024.08.19.608619, “Discovery of potent SARS-CoV-2 nsp3 macrodomain inhibitors uncovers lack of translation to cellular antiviral response” (bioRxiv, 2024).
Values joined by “and” are separate entries in the source; they are usually repeats but may differ in a detail not shown here. Equal values may be shown once.

Legend:
NMDA = experiment: In vitro CEREP profiling, NMDA (antagonist radioligand); format: binding; conditions: test compound concentration 10 uM
From the text: (§1) Supplement media-1.zip/Safety_Panel_Profile.csv, table | column: perc_inhibition

CB1 (h) = target: T1, CB1 (h) (Homo sapiens, UniProt P21554); experiment: In vitro CEREP profiling, CB1 (h) (agonist radioligand); format: binding; conditions: test compound 10 uM
T1 construct: purchased Eurofins Cerep (SafetyScreen44), recognised from the panel format
From the text: as §1

[1] = Hepatic microsomal stability, MLM; format: in vitro ADME; conditions: In vitro mouse liver microsomal stability
PDE4D2 (h) = target: T2, PDE4D2 (h) (Homo sapiens, UniProt Q08499); experiment: In vitro CEREP profiling, PDE4D2 (h); format: biochemical; conditions: test compound concentration 10 uM; Enzyme and Cell-based assays
T2 construct: purchased Eurofins Cerep (SafetyScreen44), recognised from the panel format
From the text: as §1

BZD (central) = experiment: In vitro CEREP profiling, BZD (central) (agonist radioligand); format: binding; conditions: test compound 10 uM
From the text: as §1

[2] = target: T3, norepinephrine transporter (h) (Homo sapiens, UniProt P23975); experiment: In vitro CEREP profiling, norepinephrine transporter (h) (antagonist radioligand); format: binding; conditions: test compound concentration 10 uM
T3 construct: purchased Eurofins Cerep (SafetyScreen44), recognised from the panel format
From the text: as §1

Na+ channel (site 2) = experiment: In vitro CEREP profiling, Na+ channel (site 2) (antagonist radioligand); format: binding; conditions: test compound concentration 10 uM
From the text: as §1

Protein binding = format: in vitro ADME
From the text: Supplement media-1.zip/Protein_Binding.csv, table | column: fu; perc_bound; perc_free; perc_recovered

D1 (h) = target: T4, D1 (h) (Homo sapiens, UniProt P21728); experiment: In vitro CEREP profiling, D1 (h) (antagonist radioligand); format: binding; conditions: test compound 10 uM
T4 construct: purchased Eurofins Cerep (SafetyScreen44), recognised from the panel format
From the text: as §1

[3] = test system: SARS-CoV-2, isolate USA-WA1/2020; experiment: microbe, parasite or virus in culture; format: cell-based; conditions: HeLa-ACE2 SARS-CoV-2 antiviral effect without P-gp inhibitor; for EC50: read-out: ec50; for EC90: read-out: ec90
[4] = In vitro human hepatocyte stability; format: in vitro ADME
From the text: (§2) Supplement media-1.zip/Hepatocyte_Stability.csv, table | column: clint; t_half

[5] = In vitro dog hepatocyte stability; format: in vitro ADME
From the text: as §2

[6] = In vitro rat SD liver microsomal stability; format: in vitro ADME
From the text: (§3) Supplement media-1.zip/Hepatic_Microsomal_Stability.csv, table | column: clint; t_half

A2A (h) = target: T5, A2A (h) (Homo sapiens, UniProt P29274); experiment: In vitro CEREP profiling, A2A (h) (agonist radioligand); format: binding; conditions: test compound 10 uM
T5 construct: purchased Eurofins Cerep (SafetyScreen44), recognised from the panel format
From the text: as §1

GR (h) = target: T6, GR (h) (Homo sapiens, UniProt P04150); experiment: In vitro CEREP profiling, GR (h) (agonist radioligand); format: binding; conditions: test compound concentration 10 uM
T6 construct: purchased Eurofins Cerep (SafetyScreen44), recognised from the panel format
T6 sequence (P04150 1-777): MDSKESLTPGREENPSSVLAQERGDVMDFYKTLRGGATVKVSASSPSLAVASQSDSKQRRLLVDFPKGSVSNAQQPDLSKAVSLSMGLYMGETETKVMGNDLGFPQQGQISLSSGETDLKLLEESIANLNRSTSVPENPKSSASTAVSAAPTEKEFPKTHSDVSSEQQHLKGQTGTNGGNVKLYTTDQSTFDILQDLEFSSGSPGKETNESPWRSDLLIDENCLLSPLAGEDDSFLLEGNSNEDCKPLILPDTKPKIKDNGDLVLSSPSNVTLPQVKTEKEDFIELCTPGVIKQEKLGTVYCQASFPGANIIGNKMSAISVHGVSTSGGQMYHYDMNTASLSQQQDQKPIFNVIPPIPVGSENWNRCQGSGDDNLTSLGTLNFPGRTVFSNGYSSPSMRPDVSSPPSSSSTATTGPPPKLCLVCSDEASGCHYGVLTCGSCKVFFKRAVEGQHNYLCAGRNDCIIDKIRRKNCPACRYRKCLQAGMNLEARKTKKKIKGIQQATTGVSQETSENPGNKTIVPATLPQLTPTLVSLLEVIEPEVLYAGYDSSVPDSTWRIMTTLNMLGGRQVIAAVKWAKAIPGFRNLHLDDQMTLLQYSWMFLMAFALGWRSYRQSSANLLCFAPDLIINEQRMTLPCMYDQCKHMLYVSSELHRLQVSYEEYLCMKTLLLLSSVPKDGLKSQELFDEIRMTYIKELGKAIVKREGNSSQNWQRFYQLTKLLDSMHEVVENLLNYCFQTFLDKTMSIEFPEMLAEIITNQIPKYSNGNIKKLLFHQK
From the text: as §1

in vitro = conditions: human, hela-ace2 cells, 50.0
KV channel = experiment: In vitro CEREP profiling, KV channel (antagonist radioligand); format: binding; conditions: test compound concentration 10 uM
From the text: as §1

MERS-CoV = experiment: microbe, parasite or virus in culture; format: cell-based; conditions: Vero E6/TMPRSS2 MERS-CoV antiviral effect with P-gp inhibitor; for perc_max_measured: maximum measured response of dose series; for EC90: read-out: ec90
[7] = In vitro dog liver microsomal stability; format: in vitro ADME
From the text: as §3

5-HT2B (h) = target: T7, 5-HT2B (h) (Homo sapiens, UniProt P41595); experiment: In vitro CEREP profiling, 5-HT2B (h) (agonist radioligand); format: binding; conditions: test compound concentration 10 uM
T7 construct: purchased Eurofins Cerep (SafetyScreen44), recognised from the panel format
From the text: as §1

[8] = In vitro dog plasma protein binding
[9] = In vitro fetal calf serum protein binding
[10] = In vitro human plasma protein binding
[11] = In vitro mouse plasma protein binding
[12] = In vitro rat plasma protein binding
[13] = maximum measured response of dose series
[14] = minimum measured response of dose series

T2 sequence (Q08499 303-809): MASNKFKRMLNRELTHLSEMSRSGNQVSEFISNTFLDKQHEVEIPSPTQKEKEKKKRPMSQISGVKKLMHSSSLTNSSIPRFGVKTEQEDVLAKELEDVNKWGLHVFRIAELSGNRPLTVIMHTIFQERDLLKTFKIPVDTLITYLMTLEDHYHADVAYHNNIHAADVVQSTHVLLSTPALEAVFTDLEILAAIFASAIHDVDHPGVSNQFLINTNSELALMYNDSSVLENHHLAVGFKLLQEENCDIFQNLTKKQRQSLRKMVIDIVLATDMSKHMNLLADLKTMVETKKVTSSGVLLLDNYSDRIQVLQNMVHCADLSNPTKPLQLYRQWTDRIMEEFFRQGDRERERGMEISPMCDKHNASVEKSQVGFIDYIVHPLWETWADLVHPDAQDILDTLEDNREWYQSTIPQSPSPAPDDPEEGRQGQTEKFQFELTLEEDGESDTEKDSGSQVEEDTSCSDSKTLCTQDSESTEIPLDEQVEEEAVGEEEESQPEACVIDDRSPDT
T5 sequence (P29274 whole entry): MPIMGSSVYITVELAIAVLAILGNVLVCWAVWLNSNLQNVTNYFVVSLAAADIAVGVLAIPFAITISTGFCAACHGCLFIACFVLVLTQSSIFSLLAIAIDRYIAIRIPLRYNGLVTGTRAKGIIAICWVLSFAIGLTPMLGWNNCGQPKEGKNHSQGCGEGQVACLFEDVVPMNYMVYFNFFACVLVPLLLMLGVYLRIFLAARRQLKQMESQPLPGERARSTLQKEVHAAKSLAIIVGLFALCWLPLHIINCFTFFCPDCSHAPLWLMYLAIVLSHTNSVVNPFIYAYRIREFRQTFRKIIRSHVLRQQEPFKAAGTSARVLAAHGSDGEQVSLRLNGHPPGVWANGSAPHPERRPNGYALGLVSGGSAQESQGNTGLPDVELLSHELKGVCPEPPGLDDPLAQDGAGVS
T7 sequence (P41595 whole entry): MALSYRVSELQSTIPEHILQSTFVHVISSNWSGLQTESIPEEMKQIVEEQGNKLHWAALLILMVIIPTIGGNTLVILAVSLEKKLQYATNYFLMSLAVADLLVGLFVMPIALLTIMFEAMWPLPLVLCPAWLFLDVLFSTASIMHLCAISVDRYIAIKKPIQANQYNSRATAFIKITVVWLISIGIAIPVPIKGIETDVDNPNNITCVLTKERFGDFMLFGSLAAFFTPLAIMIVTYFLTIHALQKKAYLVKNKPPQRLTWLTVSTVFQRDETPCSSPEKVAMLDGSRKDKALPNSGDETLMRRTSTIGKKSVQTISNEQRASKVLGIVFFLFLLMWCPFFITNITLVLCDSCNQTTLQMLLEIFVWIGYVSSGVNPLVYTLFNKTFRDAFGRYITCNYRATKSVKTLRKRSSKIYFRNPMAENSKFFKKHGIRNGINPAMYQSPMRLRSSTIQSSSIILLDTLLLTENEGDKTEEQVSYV
T4 sequence (P21728 whole entry): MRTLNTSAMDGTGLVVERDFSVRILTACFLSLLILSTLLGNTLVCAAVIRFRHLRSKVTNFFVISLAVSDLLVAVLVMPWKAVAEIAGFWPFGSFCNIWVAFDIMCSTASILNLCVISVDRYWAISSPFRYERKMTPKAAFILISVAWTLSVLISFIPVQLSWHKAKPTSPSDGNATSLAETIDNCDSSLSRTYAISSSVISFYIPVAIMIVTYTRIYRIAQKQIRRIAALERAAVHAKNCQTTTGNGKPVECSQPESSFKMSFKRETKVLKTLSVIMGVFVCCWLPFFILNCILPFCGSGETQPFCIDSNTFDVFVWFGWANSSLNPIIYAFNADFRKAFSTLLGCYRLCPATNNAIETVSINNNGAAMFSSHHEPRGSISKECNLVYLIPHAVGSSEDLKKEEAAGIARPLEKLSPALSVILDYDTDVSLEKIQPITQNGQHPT
T3 sequence (P23975 whole entry): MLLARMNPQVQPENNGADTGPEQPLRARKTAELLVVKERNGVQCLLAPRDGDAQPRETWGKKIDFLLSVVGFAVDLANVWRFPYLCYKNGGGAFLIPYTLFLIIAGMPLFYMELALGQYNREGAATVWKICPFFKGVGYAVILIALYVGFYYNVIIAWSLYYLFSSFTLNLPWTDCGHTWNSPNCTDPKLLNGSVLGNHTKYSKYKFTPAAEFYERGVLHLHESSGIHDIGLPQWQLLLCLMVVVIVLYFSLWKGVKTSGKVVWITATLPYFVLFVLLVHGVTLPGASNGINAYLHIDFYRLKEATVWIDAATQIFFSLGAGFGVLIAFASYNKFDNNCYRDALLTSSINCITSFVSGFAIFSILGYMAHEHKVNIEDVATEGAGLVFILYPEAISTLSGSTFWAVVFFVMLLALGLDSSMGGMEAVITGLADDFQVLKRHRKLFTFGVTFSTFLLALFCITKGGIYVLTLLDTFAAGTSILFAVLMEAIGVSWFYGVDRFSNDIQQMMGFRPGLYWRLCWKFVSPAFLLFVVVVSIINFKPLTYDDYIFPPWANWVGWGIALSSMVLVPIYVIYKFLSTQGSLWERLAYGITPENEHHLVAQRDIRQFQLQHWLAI
T1 sequence (P21554 whole entry): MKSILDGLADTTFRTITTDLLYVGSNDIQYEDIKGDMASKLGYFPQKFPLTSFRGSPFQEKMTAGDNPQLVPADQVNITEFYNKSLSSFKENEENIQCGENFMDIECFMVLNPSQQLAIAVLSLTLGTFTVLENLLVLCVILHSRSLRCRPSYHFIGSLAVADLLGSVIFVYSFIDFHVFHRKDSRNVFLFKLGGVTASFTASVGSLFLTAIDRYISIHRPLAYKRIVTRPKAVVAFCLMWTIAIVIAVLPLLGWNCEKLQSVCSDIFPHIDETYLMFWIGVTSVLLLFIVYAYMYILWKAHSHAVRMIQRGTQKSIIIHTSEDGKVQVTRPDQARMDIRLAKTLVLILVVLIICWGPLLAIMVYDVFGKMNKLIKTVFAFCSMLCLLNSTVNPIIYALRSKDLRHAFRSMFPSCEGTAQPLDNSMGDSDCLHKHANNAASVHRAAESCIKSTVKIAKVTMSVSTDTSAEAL

SMILES: CC(C)[C@H](Nc1ncnc2[nH]ccc12)c1ccc2c(c1)S(=O)(=O)CCC2 [ASAP-0008674]
- perc_inhibition (% inhibition of the binding of a ligand specific for each target) (NMDA): -1%
- perc_inhibition (% inhibition of the binding of a ligand specific for each target) (CB1 (h)): -13%
- clint [1]: 207.0 µL/min/mg
- perc_remaining [1]: 3.0%
- t_half [1]: 8.1 min
- perc_remaining_no_cofactor ([1]; no cofactor): 104.0%
- perc_inhibition: % inhibition of control enzyme activity, PDE4D2 (h) (PDE4D2 (h)): 36%
- perc_inhibition (% inhibition of the binding of a ligand specific for each target) (BZD (central)): 4%
- perc_inhibition (% inhibition of the binding of a ligand specific for each target) [2]: -3%
- perc_inhibition (% inhibition of the binding of a ligand specific for each target) (Na+ channel (site 2)): -5%
- fu (Protein binding; [8]): 0.148
- perc_bound (Protein binding; [8]): 85.2%
- perc_free (Protein binding; [8]): 14.8%
- perc_recovered (Protein binding; [8]): 97.58%
- fu (Protein binding; [9]): 0.095
- perc_bound (Protein binding; [9]): 90.5%
- perc_free (Protein binding; [9]): 9.5%
- perc_recovered (Protein binding; [9]): 94.23%
- fu (Protein binding; [10]): 0.144
- perc_bound (Protein binding; [10]): 85.6%
- perc_free (Protein binding; [10]): 14.4%
- perc_recovered (Protein binding; [10]): 95.79%
- fu (Protein binding; [11]): 0.124
- perc_bound (Protein binding; [11]): 87.6%
- perc_free (Protein binding; [11]): 12.4%
- perc_recovered (Protein binding; [11]): 89.46%
- fu (Protein binding; [12]): 0.189
- perc_bound (Protein binding; [12]): 81.1%
- perc_free (Protein binding; [12]): 18.9%
- perc_recovered (Protein binding; [12]): 91.14%
- perc_inhibition (% inhibition of the binding of a ligand specific for each target) (D1 (h)): -4%
- perc_max_measured ([3]; maximum measured response): 158.705%
- perc_max_measured [3, 13]: 129.029%
- perc_min_measured ([3]; minimum measured response): 84.767%
- perc_min_measured [3, 14]: 103.942%
- EC50 [3]: > 20 µM
- EC90 [3]: > 20 µM
- clint [4]: 27.9 uL/min/1E6 cells
- t_half [4]: 24.8 min
- clint [5]: < 3.0 uL/min/1E6 cells
- t_half [5]: > 231.0 min
- clint [6]: 155.0 µL/min/mg
- t_half [6]: 4.49 min
- perc_inhibition (% inhibition of the binding of a ligand specific for each target) (A2A (h)): 11%
- perc_inhibition (% inhibition of the binding of a ligand specific for each target) (GR (h)): 10%
- CC50 at 24 h (in vitro): > 20 µM
- perc_inhibition (% inhibition of the binding of a ligand specific for each target) (KV channel): -10%
- perc_max_measured (MERS-CoV): 131.878% and 83.309% and 125.339%
- EC90 (MERS-CoV): > 5 µM
- clint [7]: 14.3 µL/min/mg
- t_half [7]: 48.5 min
- perc_inhibition (% inhibition of the binding of a ligand specific for each target) (5-HT2B (h)): 54%

SMILES: CC(C)[C@H](Nc1ncnc2[nH]c(-c3cnn(C)c3C#N)cc12)c1ccc2c(n1)OCCO2 [ASAP-0010715]
- perc_inhibition (% inhibition of the binding of a ligand specific for each target) (NMDA): 2%
- perc_inhibition (% inhibition of the binding of a ligand specific for each target) (CB1 (h)): 46%
- perc_inhibition: % inhibition of control enzyme activity, PDE4D2 (h) (PDE4D2 (h)): 70%
- perc_inhibition (% inhibition of the binding of a ligand specific for each target) (BZD (central)): -2%
- perc_inhibition (% inhibition of the binding of a ligand specific for each target) [2]: 9%
- perc_inhibition (% inhibition of the binding of a ligand specific for each target) (Na+ channel (site 2)): 10%
- fu (Protein binding; [8]): 0.042
- perc_bound (Protein binding; [8]): 95.8%
- perc_free (Protein binding; [8]): 4.24%
- perc_recovered (Protein binding; [8]): 87.48%
- fu (Protein binding; [9]): 0.072
- perc_bound (Protein binding; [9]): 92.8%
- perc_free (Protein binding; [9]): 7.24%
- perc_recovered (Protein binding; [9]): 89.85%
- fu (Protein binding; [10]): 0.005
- perc_bound (Protein binding; [10]): 99.5%
- perc_free (Protein binding; [10]): 0.541%
- perc_recovered (Protein binding; [10]): 113.8%
- fu (Protein binding; [11]): 0.026
- perc_bound (Protein binding; [11]): 97.4%
- perc_free (Protein binding; [11]): 2.56%
- perc_recovered (Protein binding; [11]): 93.63%
- fu (Protein binding; [12]): 0.02
- perc_bound (Protein binding; [12]): 98.0%
- perc_free (Protein binding; [12]): 2.04%
- perc_recovered (Protein binding; [12]): 97.27%
- perc_inhibition (% inhibition of the binding of a ligand specific for each target) (D1 (h)): 27%
- perc_max_measured ([3]; maximum measured response): 105.242%
- perc_max_measured [3, 13]: 125.33%
- perc_min_measured ([3]; minimum measured response): 1.508%
- perc_min_measured [3, 14]: 4.425%
- EC50 [3]: 0.508 µM and 0.819 µM
- EC90 [3]: 1.96 µM and 3.36 µM
- clint [4]: 28.7 uL/min/1E6 cells
- t_half [4]: 24.2 min
- clint [5]: 3.01 uL/min/1E6 cells
- t_half [5]: 231.0 min
- clint [6]: 106.0 µL/min/mg
- t_half [6]: 6.54 min
- perc_inhibition (% inhibition of the binding of a ligand specific for each target) (A2A (h)): 84%
- perc_inhibition (% inhibition of the binding of a ligand specific for each target) (GR (h)): 11%
- CC50 at 24 h (in vitro): > 20 µM
- perc_inhibition (% inhibition of the binding of a ligand specific for each target) (KV channel): 0%
- perc_max_measured (MERS-CoV): 122.135% and 106.633%
- perc_min_measured (MERS-CoV; [14]): 93.468% and 72.24%
- EC50 (MERS-CoV; read-out: ec50): > 5 µM
- EC90 (MERS-CoV): > 5 µM
- clint [7]: 23.7 µL/min/mg
- t_half [7]: 29.2 min
- perc_inhibition (% inhibition of the binding of a ligand specific for each target) (5-HT2B (h)): 18%
